From ChEMBL document CHEMBL1137358, “Synthetic inhibitors of cytochrome P-450 2A6: inhibitory activity, difference spectra, mechanism of inhibition, and protein cocrystallization” (J Med Chem, 2006)
pKi: −log10 of the molar value.

How the values were obtained:
Cytochrome P450 2E1 = Cytochrome P450 2E1 (Homo sapiens, UniProt P05181); test: Inhibition of human CYP2E1
Cytochrome P450 2C9 = Cytochrome P450 2C9 (Homo sapiens, UniProt P11712); test: Inhibition of human CYP2C9
[1] = (§1) Stability in mouse liver microsome
Liver microsomes = test: (§2) Stability in human liver microsome; conditions: microsomes
Cytochrome P450 2A6 [2] = biological target: T1, Cytochrome P450 2A6 (Homo sapiens, UniProt P11509); test: Inhibition of human CYP2A6
T1 sequence (P11509 whole entry): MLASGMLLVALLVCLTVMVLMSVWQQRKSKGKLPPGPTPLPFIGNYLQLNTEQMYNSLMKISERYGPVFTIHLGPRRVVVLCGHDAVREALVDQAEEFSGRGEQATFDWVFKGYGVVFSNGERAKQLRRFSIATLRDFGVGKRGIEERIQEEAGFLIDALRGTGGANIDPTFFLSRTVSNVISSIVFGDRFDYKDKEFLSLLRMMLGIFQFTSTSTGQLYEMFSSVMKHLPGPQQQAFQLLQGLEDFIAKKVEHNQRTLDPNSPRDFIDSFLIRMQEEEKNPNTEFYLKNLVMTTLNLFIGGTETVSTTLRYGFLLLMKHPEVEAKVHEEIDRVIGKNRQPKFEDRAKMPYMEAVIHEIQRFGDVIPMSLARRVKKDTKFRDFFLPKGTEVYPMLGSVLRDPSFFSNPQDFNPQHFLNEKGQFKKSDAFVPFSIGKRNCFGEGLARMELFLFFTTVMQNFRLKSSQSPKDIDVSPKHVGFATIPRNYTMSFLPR

Cytochrome P450 3A4 = Cytochrome P450 3A4 (Homo sapiens, UniProt P08684); test: Inhibition of human CYP3A4
Cytochrome P450 3A4, sequence (P08684 whole entry): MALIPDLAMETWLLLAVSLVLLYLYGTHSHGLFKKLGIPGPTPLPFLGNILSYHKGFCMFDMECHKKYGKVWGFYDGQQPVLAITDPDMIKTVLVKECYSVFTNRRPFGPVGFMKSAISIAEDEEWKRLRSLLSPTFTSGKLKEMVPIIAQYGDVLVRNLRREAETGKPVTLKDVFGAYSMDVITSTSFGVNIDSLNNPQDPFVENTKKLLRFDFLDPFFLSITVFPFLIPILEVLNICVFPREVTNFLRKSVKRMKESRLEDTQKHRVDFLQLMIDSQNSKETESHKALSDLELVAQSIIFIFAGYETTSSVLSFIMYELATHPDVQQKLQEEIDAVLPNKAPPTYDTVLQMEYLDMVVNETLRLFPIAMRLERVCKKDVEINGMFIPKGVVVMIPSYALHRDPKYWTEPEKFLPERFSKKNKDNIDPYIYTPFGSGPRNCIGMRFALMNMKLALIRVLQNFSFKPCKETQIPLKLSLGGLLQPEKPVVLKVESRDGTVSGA

Cytochrome P450 2C19 = Cytochrome P450 2C19 (Homo sapiens, UniProt P33261); test: Inhibition of human CYP2C19
Cytochrome P450 2C19, sequence (P33261 whole entry): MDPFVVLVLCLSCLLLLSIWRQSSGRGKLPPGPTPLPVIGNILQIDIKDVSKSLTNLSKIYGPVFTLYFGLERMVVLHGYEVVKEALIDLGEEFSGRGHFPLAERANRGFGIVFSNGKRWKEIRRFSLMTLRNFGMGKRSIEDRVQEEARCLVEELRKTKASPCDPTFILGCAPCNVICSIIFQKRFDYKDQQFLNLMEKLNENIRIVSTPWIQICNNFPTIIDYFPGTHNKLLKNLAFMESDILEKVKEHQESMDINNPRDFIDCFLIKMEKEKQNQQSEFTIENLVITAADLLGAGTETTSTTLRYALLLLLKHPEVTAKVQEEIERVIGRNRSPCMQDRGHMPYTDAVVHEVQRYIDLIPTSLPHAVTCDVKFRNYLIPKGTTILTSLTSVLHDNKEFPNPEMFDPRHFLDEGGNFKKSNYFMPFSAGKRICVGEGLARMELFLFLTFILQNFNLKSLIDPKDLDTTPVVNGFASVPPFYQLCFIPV

Cytochrome P450 2D6 = Cytochrome P450 2D6 (Homo sapiens, UniProt P10635); test: Inhibition of human CYP2D6
Cytochrome P450 2D6, sequence (P10635 whole entry): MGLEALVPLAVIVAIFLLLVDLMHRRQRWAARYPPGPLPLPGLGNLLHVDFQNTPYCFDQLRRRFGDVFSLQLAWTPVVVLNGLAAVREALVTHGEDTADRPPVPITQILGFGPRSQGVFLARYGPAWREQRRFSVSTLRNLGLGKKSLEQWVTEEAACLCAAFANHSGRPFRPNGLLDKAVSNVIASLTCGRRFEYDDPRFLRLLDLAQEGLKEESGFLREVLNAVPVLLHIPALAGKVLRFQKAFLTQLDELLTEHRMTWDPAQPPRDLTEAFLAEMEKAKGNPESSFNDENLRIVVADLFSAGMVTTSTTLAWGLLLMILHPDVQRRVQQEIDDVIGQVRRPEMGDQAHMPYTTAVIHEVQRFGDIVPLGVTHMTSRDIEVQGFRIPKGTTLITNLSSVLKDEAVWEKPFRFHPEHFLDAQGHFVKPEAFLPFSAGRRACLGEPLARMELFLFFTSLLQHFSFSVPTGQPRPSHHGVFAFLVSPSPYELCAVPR

Cytochrome P450 2B6 = biological target: T2, Cytochrome P450 2B6 (Homo sapiens, UniProt P20813); test: Inhibition of human CYP2B6
T2 sequence (P20813 whole entry): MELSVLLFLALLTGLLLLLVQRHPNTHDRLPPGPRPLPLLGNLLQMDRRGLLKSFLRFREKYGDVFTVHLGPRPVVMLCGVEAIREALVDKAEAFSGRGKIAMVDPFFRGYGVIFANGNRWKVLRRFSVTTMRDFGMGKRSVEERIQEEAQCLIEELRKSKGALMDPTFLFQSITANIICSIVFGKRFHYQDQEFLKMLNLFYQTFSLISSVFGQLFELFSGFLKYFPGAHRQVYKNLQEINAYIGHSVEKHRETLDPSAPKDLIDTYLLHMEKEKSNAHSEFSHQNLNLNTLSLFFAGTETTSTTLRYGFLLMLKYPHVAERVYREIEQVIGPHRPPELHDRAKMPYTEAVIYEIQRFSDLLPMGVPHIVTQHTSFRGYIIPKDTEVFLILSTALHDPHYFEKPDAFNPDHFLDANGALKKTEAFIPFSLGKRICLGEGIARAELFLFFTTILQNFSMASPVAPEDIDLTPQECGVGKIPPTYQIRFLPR

Mus musculus = organism: Mus musculus; test: as §1; conditions: microsomes
[3] = as §2
CYP2A6 over CYP3A4 = test: Selectivity for CYP2A6 over CYP3A4; conditions: human
CYP2A6 over CYP2E1 = test: Selectivity for CYP2A6 over CYP2E1; conditions: human
CYP2A6 over CYP2B6 = test: Selectivity for CYP2A6 over CYP2B6
CYP2A6 over CYP2C9 = test: Selectivity for CYP2A6 over CYP2C9; conditions: human
CYP2A6 over CYP2C19 = test: Selectivity for CYP2A6 over CYP2C19; conditions: human
CYP2A6 over CYP2D6 = test: Selectivity for CYP2A6 over CYP2D6; conditions: human
Cytochrome P450 2A6 [4] = biological target: T1, Cytochrome P450 2A6; test: Displacement of coumarin from CYP2A6 at 100 uM; type: ADME

Cytochrome P450 2E1, sequence (P05181 whole entry): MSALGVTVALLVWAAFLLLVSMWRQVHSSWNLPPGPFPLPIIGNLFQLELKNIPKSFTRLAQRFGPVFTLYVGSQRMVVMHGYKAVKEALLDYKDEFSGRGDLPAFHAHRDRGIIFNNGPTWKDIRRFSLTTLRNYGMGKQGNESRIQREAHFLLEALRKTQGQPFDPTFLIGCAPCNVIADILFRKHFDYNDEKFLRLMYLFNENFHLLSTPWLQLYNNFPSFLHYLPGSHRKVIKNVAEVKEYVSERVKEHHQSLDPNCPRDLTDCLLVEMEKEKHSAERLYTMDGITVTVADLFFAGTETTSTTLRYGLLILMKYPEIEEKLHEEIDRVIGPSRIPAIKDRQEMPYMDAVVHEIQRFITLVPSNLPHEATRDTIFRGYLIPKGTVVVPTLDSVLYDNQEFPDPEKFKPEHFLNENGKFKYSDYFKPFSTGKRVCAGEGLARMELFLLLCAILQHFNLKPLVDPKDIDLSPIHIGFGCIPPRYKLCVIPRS
Cytochrome P450 2C9, sequence (P11712 whole entry): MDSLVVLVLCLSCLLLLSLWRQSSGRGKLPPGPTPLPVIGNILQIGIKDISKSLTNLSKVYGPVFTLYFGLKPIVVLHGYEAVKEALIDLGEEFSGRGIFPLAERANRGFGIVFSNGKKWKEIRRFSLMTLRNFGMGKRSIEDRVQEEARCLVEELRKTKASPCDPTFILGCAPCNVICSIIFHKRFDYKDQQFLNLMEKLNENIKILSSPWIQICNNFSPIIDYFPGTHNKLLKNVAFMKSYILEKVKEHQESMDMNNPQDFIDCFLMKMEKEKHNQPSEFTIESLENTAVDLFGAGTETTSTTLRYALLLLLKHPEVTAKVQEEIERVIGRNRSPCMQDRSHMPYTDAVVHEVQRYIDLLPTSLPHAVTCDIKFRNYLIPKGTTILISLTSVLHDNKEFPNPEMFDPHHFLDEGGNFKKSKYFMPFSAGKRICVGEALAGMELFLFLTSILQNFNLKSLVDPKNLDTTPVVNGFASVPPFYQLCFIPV

Row | pKi (Cytochrome P450 2E1) | pKi (Cytochrome P450 2C9) | half-life ([1]; liver microsomes) | pKi (Cytochrome P450 2A6 [2]) | pKi (Cytochrome P450 3A4) | pKi (Cytochrome P450 2C19) | pKi (Cytochrome P450 2D6) | pKi (Cytochrome P450 2B6) | Stability (Mus musculus) | half-life ([3]; liver microsomes) | SMILES | selectivity ratio (CYP2A6 over CYP3A4) | selectivity ratio (CYP2A6 over CYP2E1) | selectivity ratio (CYP2A6 over CYP2B6) | selectivity ratio (CYP2A6 over CYP2C9) | selectivity ratio (CYP2A6 over CYP2C19) | selectivity ratio (CYP2A6 over CYP2D6) | also measured
1 | 5.51 | 4.21 | 0.783 h | 6.05 | > 4.60 | 4.90 | 4.02 | 5.51 |  |  | Cc1cscc1-c1cccnc1 |  |  |  |  |  |  | T1/2 (Liver microsomes): 0.533 h
2 | < 3.40 | 4.47 |  | 6.22 | < 3.40 | 4.52 | 4.25 | < 3.40 | Stable | 1.6 h | CNCc1ccc(-c2cccnc2)s1 |  |  |  |  |  |  | 
3 | < 3.40 | 3.99 | 5.72 h | 4.18 | 3.96 | 4.28 | 4.84 | < 3.40 |  |  | CN(C)Cc1ccc(-c2cccnc2)s1 | 1.6 | > 3 | > 3 | 1.5 | 0.8 | 0.2 | Stability (Liver microsomes): Stable
4 | < 3.40 | 4.42 |  | 6.10 | < 3.40 | 4.82 | 4.34 | 3.75 | Stable | 1.1 h | CNCc1ccc(-c2cccnc2)o1 | > 250 | > 250 |  | 48 | 19 | 57 | 
5 | 6.22 | 5.89 | 0.4 h | 4.86 | 5.96 | 6.15 | 4.42 | 5.28 |  | 1.53 h | c1cncc(-c2ccc(C3SCCS3)o2)c1 | 0.1 | 0.04 | 0.4 | 0.1 | 0.1 | 2.8 | Activity (Cytochrome P450 2A6 [4]): Active
6 | < 3.40 | 3.95 |  |  | 3.83 | 4.10 | 3.90 | < 3.40 | Stable |  | CN(C)Cc1ccc(-c2cccnc2)o1 |  |  |  |  |  |  | 
7 | 5.28 | 3.76 | 1.55 h | 4.89 | < 3.40 | 3.96 | 3.78 | 4.15 |  | 1.65 h | c1cncc(-c2cc[nH]n2)c1 | > 15.6 | 0.4 | 5.6 | 13.4 | 8.5 | 12.9 | 
8 | 7.30 | 6.40 |  | > 6.10 | 5.51 | 6.70 | 6.15 | 5.96 |  |  | SCc1ccc(-c2cccnc2)o1 | > 4.1 | < 0.1 | > 1.5 |  | < 0.3 | < 0.9 | half-life ([1]; microsomes): 1.75 h; half-life ([3]; microsomes): 1.98 h; Activity (Cytochrome P450 2A6 [4]): Active

Further lines, the molecule ahead of its results:

Row | SMILES | pKi (Cytochrome P450 2E1) | pKi (Cytochrome P450 2C9) | half-life ([1]; liver microsomes) | pKi (Cytochrome P450 2A6 [2]) | pKi (Cytochrome P450 3A4) | pKi (Cytochrome P450 2C19) | pKi (Cytochrome P450 2D6) | pKi (Cytochrome P450 2B6) | Stability (Mus musculus) | half-life ([3]; liver microsomes) | selectivity ratio (CYP2A6 over CYP3A4) | selectivity ratio (CYP2A6 over CYP2E1) | selectivity ratio (CYP2A6 over CYP2B6) | selectivity ratio (CYP2A6 over CYP2C9) | selectivity ratio (CYP2A6 over CYP2C19) | selectivity ratio (CYP2A6 over CYP2D6) | also measured
9 | NCCCc1cccnc1 | < 3.40 | < 3.40 |  | 5.18 | < 3.40 | < 3.40 | < 3.40 | < 3.40 | Stable |  | > 400 | > 30 | > 30 | > 30 | > 30 | > 30 | Stability (Liver microsomes): Stable
10 | Cc1ccsc1-c1ccc(F)nc1 | 3.74 | < 3.40 |  | 6.22 | 4.71 | 4.68 | < 3.40 | 5.23 | Stable | 1.4 h | 5.9 | 285 | 9.1 | > 310 | 32 | > 310 | 
11 | CN(C)CC#Cc1cccnc1 | < 3.40 | < 3.40 |  | 4.17 | < 3.40 | < 3.40 | < 3.40 | 3.72 | Stable |  | > 3 | > 3 | 2.8 | > 3 | > 3 | > 3 | Stability (Liver microsomes): Stable
12 | CC(=O)SCc1ccc(-c2cccnc2)o1 | 6.70 | 5.54 | 0.3 h | 6.10 | 5.82 | 5.41 | 4.34 | 6.05 |  | 0.5 h | 1.7 | 0.3 | 1 | 3.4 | 4.6 | 53 | Activity (Cytochrome P450 2A6 [4]): Not Active
13 | NCc1ccc(-c2ccccc2)o1 | 6.10 | 6.05 |  | 6.22 | 4.20 | 4.39 | 4.83 | 5.42 |  |  | 105 | 1.3 | 6.4 | 1.5 | 6.8 | 24.6 | half-life ([1]; microsomes): 0.367 h; half-life ([3]; microsomes): 0.617 h
14 | Cc1nccn1-c1cccnc1 |  |  |  |  |  |  |  |  | Stable | 2.22 h |  |  |  |  |  |  | 
15 | Cn1cnc(-c2cccnc2)c1 | 5.70 | 4.40 | 8.02 h | 6.40 | 3.88 | 4.21 | 3.99 | 4.14 |  |  |  | 5 |  |  |  |  | Stability (Liver microsomes): Stable
16 | NCc1cc(-c2cccnc2)n[nH]1 | < 3.40 | 4.62 | 2.82 h | 6.52 | < 3.40 | 4.38 | 4.53 | 4.48 |  | 3.97 h | > 690 | > 690 | 114 | 83.4 | 143 | 103 | 
17 | c1cncc(-c2ccsc2)c1 | < 3.40 | 4.32 |  | 6.15 | 4.55 | 4.25 | 3.91 | 4.52 | Stable | 4.52 h | 40 | > 286 | 42 | 69 | 81 | > 286 | 
